Data: patent US20230257351A1, “SUBSTITUTED N-[…] HAVING P2X4 RECEPTOR ANTAGONISTIC ACTIVITY” (Bayer Aktiengesellschaft, priority 2020, published 2023)

Columns and labels:
human P2X4 = biological target: T1, human P2X4 (Homo sapiens, UniProt Q99571); assay: Human P2X4 HEK Cell FLIPR Assay; format: cell-based; conditions: HEK293 stably expressing human P2X4, agonist Bz-ATP 3 μM (EC80); for IC50: read-out: Human P2X4 HEK Cells (FLIPR Assay) avg IC50
T1 construct: expressed in transfected cells
T1 sequence (Q99571 1-388): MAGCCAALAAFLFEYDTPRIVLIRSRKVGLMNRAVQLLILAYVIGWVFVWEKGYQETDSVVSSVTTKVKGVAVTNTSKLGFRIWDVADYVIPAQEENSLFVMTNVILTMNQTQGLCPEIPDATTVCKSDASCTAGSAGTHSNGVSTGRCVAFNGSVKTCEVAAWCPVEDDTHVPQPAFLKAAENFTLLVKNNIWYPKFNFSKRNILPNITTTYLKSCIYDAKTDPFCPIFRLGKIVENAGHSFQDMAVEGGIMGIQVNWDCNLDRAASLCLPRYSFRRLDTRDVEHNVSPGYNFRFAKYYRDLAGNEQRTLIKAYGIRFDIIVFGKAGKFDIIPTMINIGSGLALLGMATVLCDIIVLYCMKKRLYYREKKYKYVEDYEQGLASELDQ
Procedure, shortened: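 HEK293 cells stably expressing human P2X4 were loaded with Fluo8-AM (30 min, 37 °C, HBSS/HEPES pH 7.4 with probenecid), then preincubated 30 min at room temperature with compound, 25 μM–1 nM final, 0.5% DMSO. Bz-ATP-evoked calcium fluorescence was read on FLIPR; data were normalized to agonist control and given a four-parameter fit for IC50.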

rat P2X4 = biological target: T2, rat P2X4 (Rattus norvegicus, UniProt P51577); assay: FLIPR Method for Rat P2X4 1321N1 Astrocytoma Cells; format: cell-based; conditions: 1321N1 stably expressing rat P2X4; agonist MgATP 5 μM (EC80)
T2 construct: expressed in transfected cells
T2 sequence (P51577 1-388): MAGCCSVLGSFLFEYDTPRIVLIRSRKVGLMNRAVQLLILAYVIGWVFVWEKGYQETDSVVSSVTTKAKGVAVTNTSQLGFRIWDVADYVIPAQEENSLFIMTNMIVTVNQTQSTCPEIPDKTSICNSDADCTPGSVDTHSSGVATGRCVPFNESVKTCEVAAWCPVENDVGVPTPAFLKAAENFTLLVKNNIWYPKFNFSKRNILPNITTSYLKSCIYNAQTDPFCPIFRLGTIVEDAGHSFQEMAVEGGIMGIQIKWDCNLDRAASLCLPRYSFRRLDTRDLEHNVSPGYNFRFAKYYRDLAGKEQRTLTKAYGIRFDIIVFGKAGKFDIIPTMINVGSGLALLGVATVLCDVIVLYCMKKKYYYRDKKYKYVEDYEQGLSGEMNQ
Procedure, shortened: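 1321N1 cells stably expressing rat P2X4, Fluo8-AM loaded; compounds (25 μM to 1 nM final, ten concentrations) preincubated 30 min at room temperature, then MgATP added at 5 μM (EC80). Calcium fluorescence read on FLIPR before and after agonist; triplicate data normalized to agonist control, four-parameter fit gives IC50.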

Compound	Human P2X4 HEK Cells (FLIPR Assay) avg Efficacy (human P2X4) [%]	IC50 (human P2X4) [nM]	IC50 (rat P2X4) [nM]	Rat P2X4 1321N1 Astrocytoma Cells (FLIPR Assay) avg Efficacy (rat P2X4) [%]
CC(=O)N(c1cc(F)cc(F)c1)c1cc(NC(=O)Cc2ccccc2C(F)(F)F)ccn1 [Example 84, N-(3,5-difluorophenyl)-N-(4-{2-[2-(trifluoromethyl)phenyl]acetamido}pyridin-2-yl)acetamide]	100	314	1030	100
CC(=O)N(c1cc(F)cc(F)c1)c1cc(NC(=O)Cc2c(C)cccc2C)ccn1 [Example 85, N-(3,5-difluorophenyl)-N-{4-[2-(2,6-dimethylphenyl)acetamido]pyridin-2-yl}acetamide]	98	251	229	97
CC(=O)N(c1cc(F)cc(F)c1)c1cc(NC(=O)Cc2ccccc2Cl)ccn1 [Example 86, N-{4-[2-(2-chlorophenyl)acetamido]pyridin-2-yl}-N-(3,5-difluorophenyl)acetamide]	98	196	393	98
CC(=O)N(c1cc(F)cc(F)c1)c1cc(NC(=O)Cc2ccc(F)cc2Cl)ccn1 [Example 87, N-{4-[2-(2-chloro-4-fluorophenyl)acetamido]pyridin-2-yl}-N-(3,5-difluorophenyl)acetamide]	98	313	983	94
CC(=O)N(c1cc(F)cc(F)c1)c1cc(NC(=O)Cc2cccc(F)c2Cl)ccn1 [Example 88, N-{4-[2-(2-chloro-3-fluorophenyl)acetamido]pyridin-2-yl}-N-(3,5-difluorophenyl)acetamide]	97	198	451	100
CC(=O)N(c1cc(F)cc(F)c1)c1cc(NC(=O)Cc2c(Cl)cccc2Cl)ccn1 [Example 89, N-{4-[2-(2,6-dichlorophenyl)acetamido]pyridin-2-yl}-N-(3,5-difluorophenyl)acetamide]	99	169	103	98
CC(=O)N(c1cc(F)cc(F)c1)c1cc(NC(=O)Cc2c(Cl)cc(F)cc2Cl)ccn1 [Example 90, N-{4-[2-(2,6-dichloro-4-fluorophenyl)acetamido]pyridin-2-yl}-N-(3,5-difluorophenyl)acetamide]	98	272	110	97
CC(=O)N(c1cc(F)cc(F)c1)c1cc(NC(=O)Cc2ccccc2OC(F)(F)F)ccn1 [Example 91, N-(3,5-difluorophenyl)-N-(4-{2-[2-(trifluoromethoxy)phenyl]acetamido}pyridin-2-yl)acetamide]	98	345	1630	100
COc1cccc(N(C(C)=O)c2cc(NC(=O)Cc3ccccc3Cl)ccn2)c1 [Example 100, N-{4-[2-(2-chlorophenyl)acetamido]pyridin-2-yl}-N-(3-methoxyphenyl)acetamide]	98	408	965	98
COc1cccc(N(C(C)=O)c2cc(NC(=O)Cc3cccc(F)c3Cl)ccn2)c1 [Example 101, N-{4-[2-(2-chloro-3-fluorophenyl)acetamido]pyridin-2-yl}-N-(3-methoxyphenyl)acetamide]	97	406	971	100

Continued, values first:

Human P2X4 HEK Cells (FLIPR Assay) avg Efficacy (human P2X4) [%]	IC50 (human P2X4) [nM]	IC50 (rat P2X4) [nM]	Rat P2X4 1321N1 Astrocytoma Cells (FLIPR Assay) avg Efficacy (rat P2X4) [%]	Compound
96	204	320	100	CC(=O)N(c1cc(NC(=O)Cc2ccccc2Cl)ccn1)c1cc(F)ccc1Cl [Example 111, N-(2-chloro-5-fluorophenyl)-N-{4-[2-(2-chlorophenyl)acetamido]pyridin-2-yl}acetamide]
96	403	408	97	CC(=O)N(c1cc(NC(=O)Cc2ccc(F)cc2Cl)ccn1)c1cc(F)ccc1Cl [Example 112, N-(2-chloro-5-fluorophenyl)-N-{4-[2-(2-chloro-4-fluorophenyl)acetamido]pyridin-2-yl}acetamide]
97	286	567	100	CC(=O)N(c1cc(NC(=O)Cc2cccc(F)c2Cl)ccn1)c1cc(F)ccc1Cl [Example 113, N-(2-chloro-5-fluorophenyl)-N-{4-[2-(2-chloro-3-fluorophenyl)acetamido]pyridin-2-yl}acetamide]
97	256	181	99	CC(=O)N(c1cc(NC(=O)Cc2c(Cl)cccc2Cl)ccn1)c1cc(F)ccc1Cl [Example 114, N-(2-chloro-5-fluorophenyl)-N-{4-[2-(2,6-dichlorophenyl)acetamido]pyridin-2-yl}acetamide]
97	435	633	89	CC(=O)N(c1cc(NC(=O)Cc2ccc(F)cc2Cl)ccn1)c1cccc(F)c1F [Example 123, N-{4-[2-(2-chloro-4-fluorophenyl)acetamido]pyridin-2-yl}-N-(2,3-difluorophenyl)acetamide]
96	176	377	83	CC(=O)N(c1cc(NC(=O)Cc2ccccc2Cl)ccn1)c1ccc(F)cc1F [Example 126, N-{4-[2-(2-chlorophenyl)acetamido]pyridin-2-yl}-N-(2,4-difluorophenyl)acetamide]
97	283	261	72	CC(=O)N(c1cc(NC(=O)Cc2ccc(F)cc2Cl)ccn1)c1ccc(F)cc1F [Example 127, N-{4-[2-(2-chloro-4-fluorophenyl)acetamido]pyridin-2-yl}-N-(2,4-difluorophenyl)acetamide]
101	184	454	87	CC(=O)N(c1cc(NC(=O)Cc2cccc(F)c2Cl)ccn1)c1ccc(F)cc1F [Example 128, N-{4-[2-(2-chloro-3-fluorophenyl)acetamido]pyridin-2-yl}-N-(2,4-difluorophenyl)acetamide]
104	197	212	96	CC(=O)N(c1cc(NC(=O)Cc2c(Cl)cccc2Cl)ccn1)c1ccc(F)cc1F [Example 129, N-{4-[2-(2,6-dichlorophenyl)acetamido]pyridin-2-yl}-N-(2,4-difluorophenyl)acetamide]
97	259	1520	80	CC(=O)N(c1cc(NC(=O)Cc2c(F)cccc2Cl)ccn1)c1ccc(F)cc1F [Example 130, N-{4-[2-(2-chloro-6-fluorophenyl)acetamido]pyridin-2-yl}-N-(2,4-difluorophenyl)acetamide]
98	206	262	98	CC(=O)N(c1cccc(Cl)c1)c1cc(NC(=O)Cc2ccccc2Cl)ccn1 [Example 131, N-(3-chlorophenyl)-N-{4-[2-(2-chlorophenyl)acetamido]pyridin-2-yl}acetamide]
98	299	228	97	CC(=O)N(c1cccc(Cl)c1)c1cc(NC(=O)Cc2ccc(F)cc2Cl)ccn1 [Example 132, N-{4-[2-(2-chloro-4-fluorophenyl)acetamido]pyridin-2-yl}-N-(3-chlorophenyl)acetamide]
